In patent publication US11479533B2, “Inhibitors of Rho associated coiled-coil containing protein kinase” (KADMON CORPORATION, LLC, priority 2017, dated 2022):
Read-outs that look alike come from different tables or passages of the source.

Experiments:
[1] = target: recombinant ROCK1 (amino acids 1-535) (Homo sapiens (Human), UniProt Q13464); test: Z'-lyte kinase assay, ROCK1; format: biochemical
Method: Determination of compounds ROCK inhibitory activity in vitro (Z'lyte assay): recombinant ROCK1 (amino acids 1-535) and ROCK2 (amino acids 1-552) proteins were purchased from ThermoFisher Scientific. Compounds activities were measured by Z'-lyte kinase kit (ThermoFisher Scientific) and IC50s were calculated.
Compounds activities were measured by Z'-lyte kinase kit (ThermoFisher Scientific). […] IC50s were calculated using the GraphPad Prism software with kinase activities data that were collected from 9 points serial dilution of compounds treatment. The ROCK inhibition in A7R5 cells and NIH3T3 (Acta2-Luc) cells was performed as described above.
The percent inhibition rate was calculated by normalizing the kinase activity value obtained with compound treatment against DMSO control value and then applied to the equation, […]. IC50's were calculated using the nonlinear regression curve fit function of the GraphPad Prism software with kinase activities data measured with 9 points 2-fold serial dilution of compounds treatment.

[2] = system: human oligodendrocyte/neuron progenitor cells; test: Neurite outgrowth and differentiation of human oligodendrocyte/neuron progenitors; format: cell-based
Method: Thawing and proliferation of human oligodendrocyte/neuron progenitor cells (OPCs). Cryopreserved human oligodendrocyte/neuron progenitors (Millipore Cat. No. CS204496) were recovered and cultured on maltrigel (BD Cat. No. 356324) coated T-25 flask in expansion media containing OPC/neuron basal medium, N21 medium supplement, recombinant human bFGF, PDGF-AA and NT-3. When cells reached 80% confluent, 3 ml of Accutase was applied (Millipore SCR005) to passage cells at 1:4 ratio. Sub-cultured cells were maintained in expansion media for proliferation.
Spontaneous differentiation of human oligodendrocyte/neuron progenitors in 24-well and 96-well plates. Coat plate with 10 μg/ml poly-L-ornithine (Sigma Cat. No. P4957) overnight at room temperature. Remove the poly-L-ornithine solution and rinse the plate with 1×PBS, add 10 μg/ml laminin (Millipore Cat. No. CC095) and incubate at 37° C. for at least 2 hours. Seed cells on the coated plates in expansion media and allowed to attach overnight. The next day expansion media was removed and replaced with freshly prepared spontaneous differentiation media only containing OPC/neuron basal media and N21 media supplement. For 14 day culture, differentiation media was replaced every 3-4 days. Cells were imaged and neurite length was analyzed by IncuCyte S3 Live Cell Analysis System every 4 hours. After 14 days of differentiation, cells were fixed by 4% paraformaldehyde and stained with DAPI and Neuron-specific ß-III tubulin antibody (R&D systems, NL1195R).

[3] = system: ACTA2-promoter-driven-luciferase in NIH3T3 cells; test: NIH3T3 Acta2-promoter driven-luciferase assay; format: cell-based; settings: Mus musculus, plus TGFβ1, 24 hr, read-out: NIH3T3, Acta2-luc, IC50
Summary of the method: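 Stable NIH3T3 line carrying luciferase reporter under human ACTA2 promoter (−1000-1 bp); confluent cells given 9-point compound dilutions with TGFβ1 for 24 hr. Lysed cells read for luciferase; IC50 from nonlinear regression fit.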

[4] = system: ppMlc (T18/S19) levels in A7R5 cells; test: A7R5 in-cell ELISA assay (ppMlc); format: cell-based, rat; settings: Rattus norvegicus, A7R5, A7R5 cells
Summary of the method: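 Rat aortic smooth muscle A7R5 cells in DMEM with 10% FBS, seeded 24 h, then treated 90 min with 9-point 2-fold compound dilutions. ppMlc (T18/S19) measured by colorimetric in-cell ELISA; cellular IC50 from nonlinear regression curve fit.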

[5] = system: bleomycin induced lung fibrosis; test: Bleomycin induced lung fibrosis in mice (therapeutic administration); format: in vivo, mouse; settings: oral once daily Day 7 to Day 20
Method: Bleomycin induced lung fibrosis in mice (therapeutic administration): Male C57B/L6 mice were housed for acclimation for no less than 7 days. After acclimation period, animals were randomly assigned to treatment groups. On day 0, mice were anesthetized with 5% isoflurane by inhalation for 10-15 mins and then suspended by their front teeth on a wire attached to a fixed animal operating plate. 50 μL of saline or bleomycin solution was administered via intratracheal instillation. Mice in treatment groups were intratracheally instilled with bleomycin hydrochloride (BLM) 2.0 U/kg (mg/kg) in sterile saline. On day 7 following bleomycin administration, half of the animals in vehicle group were sacrificed to establish a baseline for the level of fibrosis at the treatment initiation. Mice in normal control group received saline by p.o. once daily from Day 7 to Day 20. Treatment group mice received the compound dosed orally once daily from Day 7 to Day 20. On Day 20, 2-3 hours posted the last dose, all mice were sacrificed. Lungs were gently lavaged via the tracheal cannula with 0.8 mL of PBS containing 1% BSA and 0.6 mM EDTA. […] The activity of ROCK inhibitors in attenuating pulmonary fibrosis in a therapeutic dosing setting was assessed in a bleomycin-induced model, following intratracheal bleomycin installation to induce lung tissue damage and consequent fibrosis of the lung. […]

Chain of recombinant ROCK1 (amino acids 1-535) (Q13464 1-535): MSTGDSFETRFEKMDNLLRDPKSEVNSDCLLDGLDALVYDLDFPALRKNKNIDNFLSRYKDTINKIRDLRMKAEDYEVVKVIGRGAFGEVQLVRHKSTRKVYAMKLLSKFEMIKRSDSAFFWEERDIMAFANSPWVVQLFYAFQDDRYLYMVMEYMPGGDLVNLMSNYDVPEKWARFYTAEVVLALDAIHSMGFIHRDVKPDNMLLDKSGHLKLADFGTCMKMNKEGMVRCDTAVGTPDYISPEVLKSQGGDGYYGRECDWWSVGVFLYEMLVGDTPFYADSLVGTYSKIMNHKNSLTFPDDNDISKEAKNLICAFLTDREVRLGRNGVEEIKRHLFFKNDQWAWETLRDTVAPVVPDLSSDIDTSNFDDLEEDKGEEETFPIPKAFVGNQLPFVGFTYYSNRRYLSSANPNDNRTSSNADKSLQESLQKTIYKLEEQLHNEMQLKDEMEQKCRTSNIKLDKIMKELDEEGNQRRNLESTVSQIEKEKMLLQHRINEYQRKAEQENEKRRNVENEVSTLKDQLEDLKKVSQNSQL

## CNC(C(=O)Nc1ccc(-c2cn[nH]c2)cc1)c1cccc(OC)c1 (stereo not shown) [Example 2, N-(4-(1H-pyrazol-4-yl)phenyl)-2-(3-methoxyphenyl)-2-(methylamino)acetamide]
[1]
  IC50: 17 nM
[2]; 14 days culture, Beta III tubulin
  neuronal differentiation and maturation: facility neuronal differentiation and maturation
[2]; various concentrations, 3 days culture
  neurite length: significantly increase neurite length
[3]
  IC50: 352 nM
[4]; Table 2, read-out: pMLC IC50 (nM) A7R5
  IC50: 120 nM
[4]; ppMlc (T18/S19), in-cell ELISA, read-out: ppMlc IC50
  IC50: 86 nM
[5]
  collagen amounts in the lungs (Masson's trichrome): significantly lower
